What was measured:
[1] = Plasma protein binding in human at 1 uM incubated for 6.5 hrs by LC-MS/MS analysis; format: ADME, cell-free; conditions: read-out: PPB (converted)
[2] = Volume of distribution at steady state in C57BL mouse at 2 mg/kg,iv measured upto 24 hrs by LC-MS/MS analysis; format: ADME, organism-based; conditions: in vivo, read-out: Vdss
[3] = Oral bioavailability in C57BL mouse at 10 mg/kg measured upto 24 hrs by LC-MS/MS analysis; format: ADME, organism-based; conditions: in vivo
[4] = Volume of distribution at steady state in cynomolgus monkey at 1 mg/kg,iv; format: ADME, organism-based, Macaca fascicularis; conditions: in vivo, read-out: Vdss
[5] = AUC (0 to infinity) in cynomolgus monkey at 10 mg/kg,po; format: ADME, organism-based, Macaca fascicularis; conditions: in vivo
[6] = Oral bioavailability in cynomolgus monkey at 10 mg/kg; format: ADME, organism-based, Macaca fascicularis; conditions: in vivo
[7] = Metabolic stability in rat liver microsomes assessed as half life incubated upto 60 mins in presence of NADPH by LC-MS/MS analysis; format: ADME, Microsome
[8] = Half life in dog hepatocyte; format: ADME, cell-based, Canis lupus familiaris; conditions: hepatocytes
PXR (NR1I2) [9] = biological target: T1, PXR (NR1I2) (Homo sapiens, UniProt O75469); assay: Activation of PXR (unknown origin) assessed as fold change at 1 uM relative to control; format: ADME; conditions: read-out: FC
T1 sequence (O75469 whole entry): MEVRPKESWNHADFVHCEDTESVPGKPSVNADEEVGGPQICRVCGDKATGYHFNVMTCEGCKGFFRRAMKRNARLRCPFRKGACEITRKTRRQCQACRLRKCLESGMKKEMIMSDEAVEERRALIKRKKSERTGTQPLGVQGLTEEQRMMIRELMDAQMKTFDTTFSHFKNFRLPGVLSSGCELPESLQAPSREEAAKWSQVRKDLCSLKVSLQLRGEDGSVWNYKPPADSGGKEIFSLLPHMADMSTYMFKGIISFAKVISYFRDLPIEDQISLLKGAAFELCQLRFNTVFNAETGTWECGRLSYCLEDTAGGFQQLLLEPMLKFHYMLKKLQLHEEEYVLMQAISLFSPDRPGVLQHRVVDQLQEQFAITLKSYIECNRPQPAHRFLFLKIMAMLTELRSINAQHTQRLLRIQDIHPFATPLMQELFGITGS

PXR (NR1I2) [10] = biological target: T1, PXR (NR1I2); assay: Activation of PXR (unknown origin) assessed as fold change at 10 uM relative to control; format: ADME; conditions: read-out: FC
[11] = biological target: Voltage-gated inwardly rectifying potassium channel KCNH2 (Homo sapiens, UniProt Q12809); assay: Inhibition of hERG; format: toxicity
[12] = Inhibition of Sodium ion channel (unknown origin); set-up: species or system Homo sapiens
[13] = biological target: Serine/threonine-protein kinase WNK2 (Homo sapiens) (UniProt Q9Y3S1); assay: Inhibition of WNK2 (unknown origin) at 1 uM relative to control
MOLM-13 = assay: Antitumor activity against human MOLM-13 cells xenografted in NSG mouse assessed as tumor growth inhibition at 0.25 mg/kg,po administrated daily for 10 days relative to control; format: functional; conditions: MOLM-13, 240 h, time 10 day, read-out: TGI

Chain of Serine/threonine-protein kinase WNK2 (Homo sapiens) (Q9Y3S1 whole entry): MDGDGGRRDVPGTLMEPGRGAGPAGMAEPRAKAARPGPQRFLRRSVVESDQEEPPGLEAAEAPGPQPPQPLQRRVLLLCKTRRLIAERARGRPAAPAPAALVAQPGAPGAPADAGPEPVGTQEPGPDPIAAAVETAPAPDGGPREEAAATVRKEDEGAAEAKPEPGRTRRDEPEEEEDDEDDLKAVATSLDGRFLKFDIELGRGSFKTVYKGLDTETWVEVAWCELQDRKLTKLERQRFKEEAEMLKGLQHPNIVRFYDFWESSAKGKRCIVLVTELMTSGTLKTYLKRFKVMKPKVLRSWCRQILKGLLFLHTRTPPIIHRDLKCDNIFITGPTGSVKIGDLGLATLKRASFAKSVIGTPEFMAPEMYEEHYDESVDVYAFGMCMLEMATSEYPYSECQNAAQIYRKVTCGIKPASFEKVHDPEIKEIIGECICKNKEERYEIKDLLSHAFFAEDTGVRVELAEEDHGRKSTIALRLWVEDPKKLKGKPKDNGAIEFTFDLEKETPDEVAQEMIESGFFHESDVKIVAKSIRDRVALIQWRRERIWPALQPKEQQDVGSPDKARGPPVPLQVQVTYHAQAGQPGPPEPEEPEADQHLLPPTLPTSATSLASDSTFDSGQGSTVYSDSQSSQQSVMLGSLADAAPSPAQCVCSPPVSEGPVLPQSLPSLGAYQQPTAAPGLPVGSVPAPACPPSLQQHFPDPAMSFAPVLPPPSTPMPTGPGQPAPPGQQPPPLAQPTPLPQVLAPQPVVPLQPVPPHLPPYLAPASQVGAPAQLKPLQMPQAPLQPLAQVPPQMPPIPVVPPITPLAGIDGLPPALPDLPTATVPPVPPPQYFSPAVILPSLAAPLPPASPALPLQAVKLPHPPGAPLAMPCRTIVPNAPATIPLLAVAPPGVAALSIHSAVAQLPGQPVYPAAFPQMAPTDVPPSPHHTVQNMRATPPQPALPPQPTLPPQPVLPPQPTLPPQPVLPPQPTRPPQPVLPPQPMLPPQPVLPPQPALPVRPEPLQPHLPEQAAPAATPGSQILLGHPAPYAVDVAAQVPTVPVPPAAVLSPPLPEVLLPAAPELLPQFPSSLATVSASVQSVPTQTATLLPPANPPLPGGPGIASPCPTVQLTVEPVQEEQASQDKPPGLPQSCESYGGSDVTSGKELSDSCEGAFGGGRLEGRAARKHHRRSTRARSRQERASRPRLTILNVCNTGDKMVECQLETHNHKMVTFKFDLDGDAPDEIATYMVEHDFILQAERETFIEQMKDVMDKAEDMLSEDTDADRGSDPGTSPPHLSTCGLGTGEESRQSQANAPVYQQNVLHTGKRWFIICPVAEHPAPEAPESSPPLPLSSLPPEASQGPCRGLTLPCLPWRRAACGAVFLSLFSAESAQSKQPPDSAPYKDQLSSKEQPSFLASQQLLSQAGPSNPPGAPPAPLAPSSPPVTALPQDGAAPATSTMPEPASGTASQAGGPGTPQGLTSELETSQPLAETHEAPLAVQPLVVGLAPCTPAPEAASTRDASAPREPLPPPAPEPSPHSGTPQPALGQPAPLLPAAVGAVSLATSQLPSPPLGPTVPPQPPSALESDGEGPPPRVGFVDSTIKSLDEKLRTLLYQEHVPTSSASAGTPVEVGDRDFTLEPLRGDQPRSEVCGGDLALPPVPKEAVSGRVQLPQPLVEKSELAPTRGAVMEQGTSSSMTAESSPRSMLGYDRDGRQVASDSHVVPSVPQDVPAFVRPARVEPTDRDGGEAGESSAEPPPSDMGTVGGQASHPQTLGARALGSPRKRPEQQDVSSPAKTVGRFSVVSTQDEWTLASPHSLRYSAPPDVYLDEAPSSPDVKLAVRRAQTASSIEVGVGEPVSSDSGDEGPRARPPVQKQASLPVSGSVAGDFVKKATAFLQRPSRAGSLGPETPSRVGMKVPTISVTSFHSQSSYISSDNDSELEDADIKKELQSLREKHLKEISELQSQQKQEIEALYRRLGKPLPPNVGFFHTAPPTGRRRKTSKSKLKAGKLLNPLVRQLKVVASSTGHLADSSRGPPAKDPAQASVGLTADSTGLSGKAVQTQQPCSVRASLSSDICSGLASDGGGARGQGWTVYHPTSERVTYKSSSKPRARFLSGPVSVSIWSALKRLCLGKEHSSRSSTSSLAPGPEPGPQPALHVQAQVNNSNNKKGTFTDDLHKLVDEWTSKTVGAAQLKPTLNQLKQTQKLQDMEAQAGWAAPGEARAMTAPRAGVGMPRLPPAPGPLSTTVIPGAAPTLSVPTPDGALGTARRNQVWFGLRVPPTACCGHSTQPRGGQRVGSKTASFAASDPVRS
Chain of Voltage-gated inwardly rectifying potassium channel KCNH2 (Q12809 whole entry): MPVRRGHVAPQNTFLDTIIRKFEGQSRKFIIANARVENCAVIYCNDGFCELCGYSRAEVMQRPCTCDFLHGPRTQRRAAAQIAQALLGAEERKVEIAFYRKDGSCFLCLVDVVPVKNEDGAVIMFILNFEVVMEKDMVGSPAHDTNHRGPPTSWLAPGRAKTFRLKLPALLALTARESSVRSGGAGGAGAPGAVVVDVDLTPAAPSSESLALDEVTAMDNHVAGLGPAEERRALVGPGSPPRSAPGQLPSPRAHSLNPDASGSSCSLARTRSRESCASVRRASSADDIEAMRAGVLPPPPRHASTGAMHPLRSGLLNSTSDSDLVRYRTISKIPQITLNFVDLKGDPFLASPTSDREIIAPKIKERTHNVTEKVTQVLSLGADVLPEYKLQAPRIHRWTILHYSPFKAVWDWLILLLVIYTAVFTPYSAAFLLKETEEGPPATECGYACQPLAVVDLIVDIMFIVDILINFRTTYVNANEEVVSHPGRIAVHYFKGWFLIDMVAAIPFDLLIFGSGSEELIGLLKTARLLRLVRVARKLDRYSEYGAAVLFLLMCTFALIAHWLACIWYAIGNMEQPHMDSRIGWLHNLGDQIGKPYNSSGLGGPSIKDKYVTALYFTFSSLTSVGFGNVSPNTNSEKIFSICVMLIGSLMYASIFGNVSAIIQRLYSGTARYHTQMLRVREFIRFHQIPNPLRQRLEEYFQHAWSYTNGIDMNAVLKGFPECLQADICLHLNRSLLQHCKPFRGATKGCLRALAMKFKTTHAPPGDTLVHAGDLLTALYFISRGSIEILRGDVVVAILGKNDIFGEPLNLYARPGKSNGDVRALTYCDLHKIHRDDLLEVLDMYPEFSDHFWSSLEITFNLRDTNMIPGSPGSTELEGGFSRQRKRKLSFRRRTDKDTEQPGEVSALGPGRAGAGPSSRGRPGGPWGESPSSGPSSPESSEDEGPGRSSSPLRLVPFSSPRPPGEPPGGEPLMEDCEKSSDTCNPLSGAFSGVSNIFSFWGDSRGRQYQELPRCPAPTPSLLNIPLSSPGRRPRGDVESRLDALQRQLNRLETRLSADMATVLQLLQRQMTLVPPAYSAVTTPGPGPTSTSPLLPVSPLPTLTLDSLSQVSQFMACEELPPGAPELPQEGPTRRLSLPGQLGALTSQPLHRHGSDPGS

fraction unbound at 6.5 h, 1 µM [1]: 0.099
Vd [2]: 1.6 L/kg
bioavailability [3]: 125%
Vd [4]: 1.2 L/kg
AUC(0-inf) [5]: 64.6 µg·h/mL
bioavailability [6]: 88%
half-life [7]: > 180 min
half-life [8]: 14.5 min
fold induction at 1 µM (PXR (NR1I2) [9]): 3.2
fold induction at 10 µM (PXR (NR1I2) [10]): 7.4
IC50 [12]: > 10 µM
inhibition [13]: 51%
SMILES: CCn1c(CO)nn(-c2cc3c(C(C)C)cn(-c4ccccc4C)c(=O)c3cc2F)c1=O
IC50 [11]: > 10 µM
inhibition in vivo at 0.25 mg/kg (MOLM-13): 93%

Reference: ChEMBL document CHEMBL5584243, “Discovery of JNJ-74856665: A Novel Isoquinolinone DHODH Inhibitor for the Treatment of AML” (J Med Chem, 2024)
